One data set has as its system Cell cycle. Kind of data set: High content imaging screen: cell cycle. It counts as cell-based. The procedure: (§1) Mechanism of Action Screens A series of broad high content imaging, transcriptomic, metabolomic, and CRISPR KO screens were performed to link Compound A197 activity to a probable method of action. The outcome of these screens included two notable observations.

For the next data set, the system named is HCT-116 xenograft. Kind of data set: Human tumor xenograft model, colorectal cancer cell line HCT-116. The format is in vivo. The procedure: FIG. 10 is a set of graphs of in vivo treatment results for Athymic Nude mice engrafted with the DLBCL line SU-DHL-10 (left panel) or the CRC line HCT-116 (right panel). After 14 days, groups of mice (n=10 per group) were randomized by tumor volume and treated with Compound B19 (left panel) or Compound A197 (right panel). All animals dosed p.o. q.d. (orally once per day). Tumor burden was measured over 21 days. Compound B19 efficacy was monitored for 21 days following last dose to determine relapse. All data plotted as the mean±SEM, n=10 mice per group.
The positive results of the PK studies led to an evaluation of Compound A197 and Compound B19 in murine xenograft models of human tumors. Compound A197 was tested in a human tumor xenograft model using KRAS mutated colorectal cancer cell line HCT-116. Athymic nude mice (HSD:Athymic Nude-Foxn1 nu, Envigo) were inoculated subcutaneously with 5×10^6 HCT-116 cells in the right rear flank. The animals wethen staged and randomized by tumor size to achieve dose groups of 10 animals each with an average tumor volume of 150 mm^3. Tumor bearing mice were dosed once daily by oral gavage with a vehicle (5% NMP, 15% PEG400, 10% Solutol, and 70% D5W) or with A197 dissolved in vehicle to provide a dose concentration of 10 ml/kg. Compound B19 was tested in a human xenograft model using the human diffuse large B-cell lymphoma line SU-DHL-10 (ATCC). […]
On the technique in general: In xenograft studies the graft and the host belong to different species.

The next data set concerns DNA Damage. The data set can be described thus: High content imaging screen: DNA damage (Histone H2A.x phosphorylation). It counts as cell-based. Conditions: Histtone H2A.x phosphorylation as marker. As to the method: as §1
Another data set deals with SU-DHL-2. The data set can be described thus: Cell proliferation, Cell-Titre Glo, 72 hours: SU-DHL-2. The format is cell-based. Conditions: Homo sapiens, mean ± std. dev. As to the method: (§2) NHLF, BJAB, SU-DHL-2, and HCT-116 cells were treated with Compound A197 for 4 hours prior to lysate harvest. Total cellular glutathione (GSH) levels were determined using a luminescent endpoint (GSH-Glo, Promega). Cell proliferation was determined using Cell-Titre Glo following 72 hours of compound treatment. All data shown is mean±SD of three biological replicates.

Data set [1] in a line: Pharmacokinetics in CD-1 mice, single oral dose compared to single intravenous dose. It counts as in vivo. Conditions: for bioavailability: CD-1, mouse, po; for Cmax: blood plasma. As to the method:
Pharmacokinetic Properties of Compound A197 Compound A197 levels in blood plasma of CD-1 mice given a single, oral dose of the agent and compared to a single intravenous dose, were measured to assess basic pharmacokinetic parameters. A197 was dissolved in 1% NMP, 0.3% Tween-80 in 0.5% methylcellulose at a dose volume of 10 ml/kg. Following compound dosing, blood was collected by tail vein bleed at 30 minutes, 1, 2, 4, 8, 12, 24 and 48 hrs following dosing.

The next data set has as its system HDAC. The data set can be described thus: In vitro assays: HDAC. The format is biochemical. As to the method:
as §1

Another data set has as its system Gene Expression. Kind of data set: Transcriptomic screen. It counts as cell-based. The procedure: as §1
The test system of data set [2] is NHLF, BJAB, SU-DHL-2, and HCT-116 cells. The data set can be described thus: Total cellular GSH levels (GSH-Glo), all lines. The format is cell-based, human. As to conditions: tumor lines HCT-116, BJAB. As to the method: Total cellular GSH levels are reduced in tumor lines treated with Compound A197 The therapeutic compounds will cause a dose dependent reduction in total cellular glutathione in HCT-116, BJAB, SU-DHL-2, but not in NHLF cells. The maximum reduction of cellular GSH is in the range of 43-69%. The reduction In GSH levels appears independent of apoptosis.
as §2

The next data set concerns Metabolites. Kind of data set: Metabolomic screen. It counts as cell-based. Conditions: GSH, ATP/AMP ratio, isocitrate and aconitate. The procedure: as §1
Setting [3] is: mouse, plasma, 0.5 mg/kg, Intravenous, 0.5 mpk.

“Also recorded” adds a separate entry of the source. Where two headings read alike, the source gives them in different places.

The IC50 is the point on the concentration scale where inhibition reaches its midpoint. Low readings indicate greater potency, high ones weaker potency. A word on the Cmax: it is the highest concentration seen after dosing. A word on the AUC(0-inf): it is the area under the concentration-time curve extrapolated to infinity. For orientation: Tmax means the time from dosing to the highest level. The term half-life denotes how long it takes for the measured level to halve.

For `Cc1nn(-c2nc(-c3ccc(C(F)(F)F)cc3)c(SC(C)C)s2)c(C(=O)O)c1-c1cccc(F)c1` [Compound A197, 4-(3-fluorophenyl)-1-(5-(isopropylthio)-4-(4-(trifluoromethyl)phenyl)thiazol-2-yl)-3-methyl-1H-pyrazole-5-carboxylic acid], the “Outcome: Cell cycle” value in the data set with Cell cycle is “G1 arrest associated with TP53 independent CDKN1A”. For the same molecule, in the data set on HCT-116 xenograft (HCT-116 xenograft, once daily oral gavage, 21 days, p<01 for 75 and 30 mpk doses), the “tumor growth in the solid tumor model” value is listed as “significantly slower growth”. For the same molecule, in the data set with HCT-116 xenograft (markers of liver function, metabolism, and myelopoiesis, tumor bearing mice (data not shown)), the “tolerability, signs of toxicity” value is “well-tolerated with no overt signs of toxicity”. Also, the “Outcome: DNA Damage” value with DNA Damage is recorded as “No evidence of DNA damage using Histtone H2A.x”. Moreover, the IC50 with SU-DHL-2 is 180 ± 60 nM. The bioavailability in data set [1] (plasma, 2.5 mg/kg, Oral, 2.5 mpk, read-out: % F) is 59.1%; in [1] (plasma, 2.5 mg/kg, single oral dose compared to single intravenous dose, read-out: Bioavailability) it was 59%. In data set [1] (Intravenous, 0.5 mpk), this molecule registered a t1/2 of 5.6 h. The maximum concentration (Cmax) in data set [1] (mouse, 0.5 mg/kg, Intravenous, 0.5 mpk) came to 2880 ng/mL; in data set [1] (mouse, 2.5 mg/kg, Oral, 2.5 mpk) it was 2610 ng/mL. In addition, the AUC(0-inf) in data set [1] (setting [3]) came out at 14500 ng·h/mL; in data set [1] (mouse, plasma, 2.5 mg/kg, Oral, 2.5 mpk), 42900 ng·h/mL. The molecule further came in with a clearance in [1] (setting [3]) of 0.58 mL/min/kg. For the same molecule, the Vd in [1] (mouse, plasma, 0.5 mg/kg, Intravenous, 0.5 mpk, read-out: Vss) came out at 0.285 L/kg. In data set [1] (mouse, plasma, 2.5 mg/kg, single oral dose, read-out: Plasma drug tmax), the Tmax was 6 h. The half-life in data set [1] (mouse, plasma, iv, 0.5 mg/kg) was 5.6 h. In the data set on HDAC, the “Outcome: HDAC” value is given as “No activity on any HDAC”. Further, in the data set on Gene Expression, the “Outcome: Gene Expression” value is on record as “induced the ATF4 pathway; also recorded: Induction of ATF pathway; no effect on cell cycle gene”. The “maximum reduction of cellular GSH” value in data set [2] is 43-69%. The “Outcome: Metabolites” value with Metabolites was “induced specific alterations in redox (decreased GSH), energy (decrease in ATP/AMP ratio), and TCA cycle intermediates (decreased isocitrate/aconitate) in tumor cells but not NHLF; also recorded: Decrease in total GSH levels; decrease in ATP/AMP”.

Source of the values: patent US20210278408A1, “METHODS OF TREATMENT OF CANCER WITH SUBSTITUTED PYRROLE AND PYRAZOLE COMPOUNDS AND DIAGNOSIS OF CANCERS SUSCEPTIBLE TO TREATMENT WITH SUBSTITUTED PYRROLE AND PYRAZOLE COMPOUNDS” (Bantam Pharmaceutical, LLC, priority 2018, published 2021).
